Measurements: the supplement of paper PMC10307832

Key:
Experiment in all cases: relative viability (nuclei count vs DMSO), 5 days (fraction); higher = more cells survive
[1] = system: NCI-H358
Method in brief: (§1)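 Lung cancer cell lines were pin-tool dosed in 1536-well plates on the day after seeding, with either a lone drug or a fixed anchor-drug dose plus five library-drug doses (not always all listed) in √10 steps. Nuclei were counted on 4× images after 5 days. Relative viability is the ratio of treated-well to vehicle-well nuclei counts, with each value a median of duplicate plates.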

[2] = system: SK-LU-1
Method in brief: as §1

[3] = system: LOU-NH91
Method in brief: as §1

[4] = system: NCI-H1915
Method in brief: as §1

[5] = system: NCI-H460
Method in brief: as §1

[6] = system: NCI-H1734
Method in brief: as §1

[7] = system: NCI-H1755
Method in brief: as §1

[8] = system: HCC-78
Method in brief: as §1

[9] = system: SW 1573
Method in brief: as §1

[10] = system: PC-3 [JPC-3]
Method in brief: as §1

[11] = system: NCI-H522
Method in brief: as §1

[12] = system: NCI-H2228
Method in brief: as §1

[13] = system: HOP-62
Method in brief: as §1

[14] = system: A-427
Method in brief: as §1

[15] = system: RERF-LC-KJ
Method in brief: as §1

[16] = system: NCI-H2342
Method in brief: as §1

[17] = system: NCI-H2347
Method in brief: as §1

[18] = system: NCI-H2126
Method in brief: as §1

[19] = system: NCI-H1792
Method in brief: as §1

[20] = system: LC-2-ad
Method in brief: as §1

[21] = system: LXF-289
Method in brief: as §1

[22] = system: NCI-H647
Method in brief: as §1

[23] = system: NCI-H1975
Method in brief: as §1

[24] = system: HCC-15
Method in brief: as §1

Work on `CC(C)Oc1cc(Nc2nc(N[C@@H](C)c3ccc(F)cn3)ncc2Cl)n[nH]1` [AZ23] + Cc1nc(Nc2ncc(C(=O)Nc3c(C)cccc3Cl)s2)cc(N2CCN(CCO)CC2)n1 [Dasatinib] (partner 0.075 µM) yielded a relative viability ([1]; first compound 0.01 µM) of 0.144, a relative viability ([1]; first compound 0.03162 µM) of 0.161 and a relative viability ([1]; first compound 0.3162 µM) of 0.123. For the same compound, the relative viability ([2]; first compound 0.03162 µM) was 0.193, the relative viability ([2]; first compound 0.3162 µM) was 0.152 and the relative viability ([3]; first compound 0.01 µM) was 0.565. The relative viability ([3]; first compound 0.03162 µM) was 0.589, the relative viability ([3]; first compound 0.3162 µM) was 0.551 and the relative viability ([4]; first compound 0.01 µM) was 0.33. For the same compound, the relative viability ([4]; first compound 0.03162 µM) was 0.342, the relative viability ([4]; first compound 0.3162 µM) was 0.29 and the relative viability ([5]; first compound 0.01 µM) was 0.295. The relative viability ([5]; first compound 0.03162 µM) was 0.592, the relative viability ([5]; first compound 0.3162 µM) was 0.503 and the relative viability ([6]; first compound 0.01 µM) was 0.445. It also gave a relative viability ([6]; first compound 0.03162 µM) of 0.454, a relative viability ([6]; first compound 0.3162 µM) of 0.448 and a relative viability ([7]; first compound 0.01 µM) of 0.456. It also gave a relative viability ([7]; first compound 0.03162 µM) of 0.488, a relative viability ([7]; first compound 0.3162 µM) of 0.357 and a relative viability ([8]; first compound 0.01 µM) of 0.323. The relative viability ([8]; first compound 0.03162 µM) was 0.381, the relative viability ([8]; first compound 0.3162 µM) was 0.328 and the relative viability ([9]; first compound 0.01 µM) was 0.747. The relative viability ([9]; first compound 0.03162 µM) was 0.605, the relative viability ([9]; first compound 0.3162 µM) was 0.52 and the relative viability ([10]; first compound 0.01 µM) was 1.13. It also gave a relative viability ([10]; first compound 0.03162 µM) of 1.08, a relative viability ([10]; first compound 0.3162 µM) of 1.01 and a relative viability ([11]; first compound 0.01 µM) of 0.716. It also gave a relative viability ([11]; first compound 0.03162 µM) of 0.933, a relative viability ([11]; first compound 0.3162 µM) of 1.02 and a relative viability ([12]; first compound 0.01 µM) of 0.571. For the same compound, the relative viability ([12]; first compound 0.03162 µM) was 0.504, the relative viability ([12]; first compound 0.3162 µM) was 0.445 and the relative viability ([13]; first compound 0.01 µM) was 0.702. For the same compound, the relative viability ([13]; first compound 0.03162 µM) was 0.684, the relative viability ([13]; first compound 0.3162 µM) was 0.631 and the relative viability ([14]; first compound 0.01 µM) was 0.701. The relative viability ([14]; first compound 0.03162 µM) was 0.862, the relative viability ([14]; first compound 0.3162 µM) was 0.684 and the relative viability ([15]; first compound 0.01 µM) was 0.91. It also gave a relative viability ([15]; first compound 0.03162 µM) of 0.948, a relative viability ([15]; first compound 0.3162 µM) of 0.891 and a relative viability ([16]; first compound 0.01 µM) of 0.299. The relative viability ([16]; first compound 0.03162 µM) was 0.31, the relative viability ([16]; first compound 0.3162 µM) was 0.339 and the relative viability ([17]; first compound 0.01 µM) was 0.235. The relative viability ([17]; first compound 0.03162 µM) was 0.298, the relative viability ([17]; first compound 0.3162 µM) was 0.274 and the relative viability ([18]; first compound 0.01 µM) was 0.573. For the same compound, the relative viability ([18]; first compound 0.03162 µM) was 0.715, the relative viability ([18]; first compound 0.3162 µM) was 0.56 and the relative viability ([19]; first compound 0.01 µM) was 0.804. It also gave a relative viability ([19]; first compound 0.03162 µM) of 1.16, a relative viability ([19]; first compound 0.3162 µM) of 0.672 and a relative viability ([20]; first compound 0.01 µM) of 0.569. It also gave a relative viability ([20]; first compound 0.03162 µM) of 0.588, a relative viability ([20]; first compound 0.3162 µM) of 0.564 and a relative viability ([21]; first compound 0.01 µM) of 0.205. The relative viability ([21]; first compound 0.03162 µM) was 0.275, the relative viability ([21]; first compound 0.3162 µM) was 0.189 and the relative viability ([22]; first compound 0.01 µM) was 0.174. For the same compound, the relative viability ([22]; first compound 0.03162 µM) was 0.215, the relative viability ([22]; first compound 0.3162 µM) was 0.17 and the relative viability ([23]; first compound 0.01 µM) was 0.453. The relative viability ([23]; first compound 0.03162 µM) was 0.405, the relative viability ([23]; first compound 0.3162 µM) was 0.326 and the relative viability ([24]; first compound 0.01 µM) was 0.642. The relative viability ([24]; first compound 0.03162 µM) was 0.712 and the relative viability ([24]; first compound 0.3162 µM) was 0.575.
